From PubChem BioAssay (NCI)
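Following 48 hours of exposure in 96-well plates, responses at five concentrations were used to interpolate endpoints linearly. The concentration for full growth arrest is given as TGI.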 Where a SMILES comes first, the peptide text is derived from it. The star is where a group is joined. Cbz = O=C(OCc1ccccc1)*; Boc = CC(C)(C)OC(=O)*; tBu = CC(C)(C)*

Assays:
Test in all cases: DTP human tumour cell line panel, 48 h
HCC-2998 colon = system: HCC-2998 colon
KM12 colon = system: KM12 colon
LOX IMVI melanoma = system: LOX IMVI melanoma
MCF7 breast = system: MCF7 breast
MDA-MB-435 = system: MDA-MB-435
MOLT-4 leukemia = system: MOLT-4 leukemia
NCI-H226 lung = system: NCI-H226 lung
NCI-H23 lung = system: NCI-H23 lung
SF-295 CNS = system: SF-295 CNS
SF-539 CNS = system: SF-539 CNS
SNB-19 CNS = system: SNB-19 CNS
SNB-75 CNS = system: SNB-75 CNS
TK-10 renal = system: TK-10 renal
UACC-257 melanoma = system: UACC-257 melanoma

Row | Compound | TGI (HCC-2998 colon) [µM] | TGI (KM12 colon) [µM] | TGI (LOX IMVI melanoma) [µM] | TGI (MCF7 breast) [µM] | TGI (MDA-MB-435) [µM] | TGI (MOLT-4 leukemia) [µM] | TGI (NCI-H226 lung) [µM] | TGI (NCI-H23 lung) [µM] | TGI (SF-295 CNS) [µM] | TGI (SF-539 CNS) [µM] | TGI (SNB-19 CNS) [µM] | TGI (SNB-75 CNS) [µM] | TGI (TK-10 renal) [µM] | TGI (UACC-257 melanoma) [µM]
1 | COc1cc(OC)c2c(=O)c(OC)c(-c3ccc4c(c3)OCO4)oc2c1 | > 100 | > 100 | 48.8 | > 100 | > 100 | > 100 | > 100 | 64 | 61.7 | 44.1 | 62.7 | 33.5 | > 100 | > 100
2 | CC(C)(C)C1=CC(=C(c2ccc(-c3c4nc(c(-c5ccc(C(=C6C=C(C(C)(C)C)C(=O)C(C(C)(C)C)=C6)c6cc(C(C)(C)C)c(O)c(C(C)(C)C)c6)cc5)c5ccc([nH]5)c(-c5ccc(C(=C6C=C(C(C)(C)C)C(=O)C(C(C)(C)C)=C6)c6cc(C(C)(C)C)c(O)c(C(C)(C)C)c6)cc5)c5nc(c(-c6ccc(C(=C7C=C(C(C)(C)C)C(=O)C(C(C)(C)C)=C7)c7cc(C(C)(C)C)c(O)c(C(C)(C)C)c7)cc6)c6ccc3[nH]6)C=C5)C=C4)cc2)c2cc(C(C)(C)C)c(O)c(C(C)(C)C)c2)C=C(C(C)(C)C)C1=O | > 100 | > 100 | > 100 | > 100 | > 100 | > 100 | > 100 | > 100 | > 100 | > 100 | > 100 | > 100 | > 100 | > 100
3 | Cc1cccc2c(N)c3cccc(C(=O)NCC[N+](C)(C)Cc4c([N+](=O)[O-])ncn4C)c3nc12 | > 95.7 | > 100 | 35.6 | > 47.3 | > 100 | > 100 | > 100 | > 70.2 | > 100 | 36.9 | > 100 | > 100 | > 100 | > 100
4 | Cc1cc(C)n(C2OC(CO)C(O)C(O)C2O)c(=S)c1C#N (centres undefined) | > 100 | > 100 | > 100 | > 100 | > 100 | > 100 | > 100 | > 100 | > 100 | > 100 | > 100 | > 100 | > 100 | > 100
5 | O=C(Cc1ccccc1)N/N=C/c1ccccc1O | > 100 | > 100 | > 100 | > 100 | > 100 | > 100 | 81.5 | > 100 | 85.2 | > 100 | > 100 | 59.8 | > 100 | 58
6 | CC(OC(C)(C)C)C(NC(=O)C(CCCCNC(=O)OC(C)(C)C)NC(=O)C(Cc1c[nH]c2ccccc12)NC(=O)C(Cc1ccccc1)NC(=O)OCc1ccccc1)C(=O)NC(Cc1ccccc1)C(=O)O (centres undefined) (Cbz-FWK(Boc)T(tBu)F-OH; configuration not given here) | > 100 | > 100 | > 100 | > 100 | > 100 | > 100 | > 100 | > 100 | > 100 | 59.9 | 52.8 | > 100 | > 100 | > 100
